Experimental data reported in paper PMC4116459 (Molecular microbiology, 2014).

How the values were obtained:
BcsE = BcsE (Escherichia coli, UniProt P37657); test: equilibrium dialysis with purified MBP-BcsE; assay type: binding
YcgR = target: T1, YcgR (Escherichia coli, UniProt P76010); test: […]-c-di-GMP DRaCALA with cell lysates, competed by unlabeled c-di-GMP; assay type: cell-based
T1 sequence (P76010 1-244): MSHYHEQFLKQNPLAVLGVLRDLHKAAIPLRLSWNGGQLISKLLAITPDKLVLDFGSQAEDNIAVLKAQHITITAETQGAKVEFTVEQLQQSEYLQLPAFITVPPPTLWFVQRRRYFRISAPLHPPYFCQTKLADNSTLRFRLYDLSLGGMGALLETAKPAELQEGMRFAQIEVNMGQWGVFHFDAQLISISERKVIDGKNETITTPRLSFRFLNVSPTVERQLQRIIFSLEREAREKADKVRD

BcsE, sequence (P37657 whole entry): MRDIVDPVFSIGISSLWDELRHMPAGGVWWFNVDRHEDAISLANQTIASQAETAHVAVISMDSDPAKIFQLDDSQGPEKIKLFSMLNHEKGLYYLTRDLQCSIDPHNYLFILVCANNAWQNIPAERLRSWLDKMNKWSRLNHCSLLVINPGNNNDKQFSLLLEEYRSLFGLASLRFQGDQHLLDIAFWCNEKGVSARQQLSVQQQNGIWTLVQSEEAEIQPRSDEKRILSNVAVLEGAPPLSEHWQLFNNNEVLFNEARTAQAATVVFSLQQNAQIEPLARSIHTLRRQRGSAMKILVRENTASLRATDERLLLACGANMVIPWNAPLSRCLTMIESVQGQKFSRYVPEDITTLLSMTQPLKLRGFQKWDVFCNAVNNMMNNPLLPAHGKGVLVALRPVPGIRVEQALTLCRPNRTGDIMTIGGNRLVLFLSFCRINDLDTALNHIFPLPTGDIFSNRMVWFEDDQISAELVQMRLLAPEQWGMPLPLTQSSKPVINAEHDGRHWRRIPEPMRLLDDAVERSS

Structure (SMILES): Nc1nc2c(ncn2[C@@H]2O[C@@H]3COP(=O)(O)O[C@H]4[C@@H](O)[C@H](n5cnc6c(=O)[nH]c(N)nc65)O[C@@H]4COP(=O)(O)O[C@H]3[C@H]2O)c(=O)[nH]1 [c-di-GMP]
- Kd (BcsE): 2420 nM
- 33P-c-di-GMP DRaCALA with cell lysates, competed by unlabeled c-di-GMP (YcgR): Only the YcgR and Clp lysates produced positive signals (Fig. 1B).
